Holding throughout (format): in vivo
Series [1] relates to human prostate cancer cell line LNCaP xenografts. Description: LNCaP xenograft growth inhibition in nude mice. Conditions: 20 mg/kg b.w. i.p. once daily. On the procedure: (§1) All the procedures related to animal handling, care, and the treatment in the study were performed following guidelines approved by an Institutional Animal Care and Use Committee (IACUC) of Crown Bioscience, Inc. (Santa Clara, Calif., USA, a contract research organization we hired) based on the guidance of the Association for Assessment and Accreditation of Laboratory Animal Care (AAALAC). Animals were checked for any effects of tumor growth and drug treatment on normal behavior such as mobility, food and water consumption, body weight gain/loss (gross body weights were measured twice weekly), eye/hair matting, and any other abnormal effect. Death and observed clinical signs were recorded on the basis of the number of animals within each group. Individual animals with a tumor volume exceeding 3,000 mm^3 or animals of a group with a mean tumor volume exceeding 2,000 mm^3 were euthanized. In addition, animals showing signs of severe distress and/or pain, dropping body weight more than 20% from that at the start of treatment, or losing the capability of accessing adequate food or water were humanely sacrificed.
The human prostate cancer cell line LNCaP (ATCC, American Type Culture Collection, Manassas, Va., USA) were maintained in vitro as monolayer culture in RPMI-1640 medium supplemented with 10% fetal bovine serum (FBS), 100 U/ml penicillin, 100 μg/ml streptomycin, and 2 mM L-glutamine at 37° C. in an atmosphere of 5% CO2 in air. The tumor cells were routinely subcultured twice a week. The cells growing in an exponential phase were harvested and counted for tumor inoculation.
(§2) Each mouse was inoculated subcutaneously at the right flank with the LNCaP cells (1×10^7) in 0.1 ml of PBS for tumor development. When a mean tumor volume reached around 150 mm^3, the tumor-bearing mice were divided into homogeneous blocks based on their tumor volumes followed by a randomization of mice in each block into treatment groups (thus minimizing variations in tumor response to treatments due to the differential in initial mean tumor volumes). Each treatment group was consisted of 8 tumor-bearing mice. Vehicle (DMSO) or ITE in the vehicle at specified doses were administered to the mice by either i.p. (intraperitoneal) or p.o. (oral) injection once or twice daily for 28 continuous days as indicated.
(§3) Tumor volume was measured twice weekly in two dimensions using a caliper and the volume was calculated with a formula of: V=0.5 a×b^2, where a and b are the long and short diameter (in mm) of a tumor, respectively. The tumor volume was then used for calculations of both TGI (Tumor Growth Inhibition) and TGD (Tumor Growth Delay). The TGI was determined by: TGI=ΔT/ΔC×100%, where ΔT was a difference between the mean tumor volume at a specified day of observation and that at the day treatment starts (day 1) for a drug treated group whereas ΔC was the same difference measured for the control group. The TGD was calculated as: TGD=T−C, where T was the time (in days) required for tumors in a drug treated group to reach a predetermined mean tumor volume and C the time (in days) in the control group to reach the same volume. A tumor weight was derived by equating 1,000 mm^3 in volume to 1,000 mg in weight. A net body weight was then derived by subtracting a tumor weight from a corresponding gross body weight with the tumor.
(§4) Summary statistics, including mean and the standard error of the mean (SEM), are provided for the tumor volume of each group at each time point. Statistical analysis of difference in tumor volume among groups was conducted on a data set either at the best therapeutic time point or at the final dosing day as indicated. The tumor volume data were log-transformed and evaluated using a one-way ANOVA followed by Tukey's test when significance was observed. All data were analyzed using SPSS 16.0 and p<0.05 was considered to be statistically significant.

Series [2] deals with human liver cancer cell line HepG2 xenografts. In words: HepG2 xenograft growth inhibition in nude mice. The method, then: as §1, §2, §3, §4
(§5) The culture and inoculation of human prostate cancer cell line LNCaP were as described in Example 1. The manipulation for human liver cancer cell line HepG2 (ATCC) was similar as that for LNCaP except that DMEM (instead of RPMI-1640) medium was used, the L-glutamine was not used, and 2×10^6 cells were used for inoculation into female nude mice. The handling of human ovarian cancer cell line OVCAR-3 (ATCC) was the same as that of LNCaP except that the DMEM medium was used and 5×10^6 cells were used for inoculation into female nude mice. […]

Series [3] has as its system human ovarian cancer cell line OVCAR-3 xenografts. Description: OVCAR-3 xenograft growth inhibition in nude mice. On the procedure:
as §1, §2, §3, §4, §5

Where [4] appears, read: 80 mg/kg i.p. once daily, at a tumor volume of 800 mm^3.
[5] abbreviates: female, nude, mouse, in vivo, 32 day.

Structures are written as SMILES.

For the compound `CCC(=O)c1csc(C(=O)c2c[nH]c3ccccc23)n1` [ITK], the “TGD (Tumor Growth Delay)” value in series [1] (at a tumor volume of 1,000 mm^3) was 16 days; in series [2] (setting [4]) it was 26 days; in series [3] (setting [4]) it was 13 days. Besides, the “TGI (Tumor Growth Inhibition)” value in series [1] (day 28, TGI=ΔT/ΔC×100%) is 51%; in series [2] (80 mg/kg i.p. once daily, day 22, TGI=ΔT/ΔC×100%) it was 22%; in series [3] (80 mg/kg i.p. once daily, day 33, TGI=ΔT/ΔC×100%), 46%. Also, the “net body weight loss” value in series [2] (80 mg/kg i.p. once daily) and in series [3] (80 mg/kg i.p. once daily) was “no obvious net body weight loss” throughout. Further, the mice died in series [2] (setting [5]) and in series [3] (setting [5]) was 1 out of 8 in each case.

For the origin of these results see patent publication US10632106B2, “Methods of cancer treatment with 2-(1′H-Indole-3′-carbonyl)-thiazole-4-carboxylic acid methyl ester” (Ariagen, Inc., priority 2009, dated 2020).
